Assay results published in US20020115122A1, “Method and apparatus for automated assessment of the immunoregulatory status of the mononuclear leukocyte immune system” (priority 1998, published 2002).

How the values were obtained:
[1] = test system: peripheral blood mononuclear cells from normal donors; test: Stimulation index by tritiated thymidine uptake in PHA culture; type: cell-based, human; conditions: 72 hours in culture with PHA
Procedure: This analysis is correlated with the stimulation index as measured by a 72 hour PHA culture with tritiated thymidine uptake. Peripheral blood mononuclear cells from normal donors were isolated by density gradient centrifugation, cultured with PHA, incubated with monoclonal antibodies to select mononuclear cell subclass antigenic determinants and to IL-2 receptors and four parameter data generated and analyzed similar as described in “Detailed Description”. Monoclonal antibodies used included FITC-conjugated antibody for the antigenic determinants Leu-4, Leu-3a or Leu-2a, and PE-conjugated monoclonal antibody for IL-2 receptor. Four parameter data was collected on cells using an EPICS-V flow cytofluorometer (Coulter Corporation, Hialeah, Fla.) configured as described in “Detailed Description” with the following modification: the argon laser was used at 500 milliwatts. Forward and orthogonal light scatter parameters were analyzed to determine if the cell was within an area of interest which substantially included lymphocytes, lymphoblasts and monocytes. Green and red fluorescence data analysis was performed for such cells. The percentage of antigenic determinant and/or IL-2 receptor positive mononuclear cells, i.e., Leu-4+, Leu-3a+, Leu-2a+, IL2R+, leu-4+IL2R+, Leu-3a+IL2R+and Leu-2a+IL2R+, was determined as per the methods described herein. […]

[2] = test system: peripheral blood mononuclear cells from normal donors; test: Antigenic determinant and IL-2 receptor expression on PHA stimulated mononuclear cells (flow cytofluorometry); type: cell-based, human; conditions: for IL2R+ percentage positive / Leu 2a+ percentage positive / Leu 3a+ percentage positive / Leu 4+ percentage positive: N = 9, ± standard error; for ratio of Activated Leu-3a+: Activated Leu-2a+ cells: at 18 hours in culture with PHA
Procedure: The sample of isolated cells is cultured with a standard stimulus for a period of time sufficient to allow a measurable amount of activation antigen expression, as influenced by mononuclear cell subclass interaction, to develop. In this particular embodiment, the isolated cells at a concentration of 1 million cells per milliliter are cultured with PHA at a concentration of 37.5 micrograms per milliliter, serving as a standard stimulus, for 18 hours. RPMI 1640 with fetal calf serum and glutamine serve as a culture media. The culture time is determined for each particular standard stimulus using samples from normal subjects, culturing portions of each sample for different lengths of time and determining the amount of activation antigen expression for each culture time. A measurable amount of IL-2 receptor expression is observed about 18 hours after initiating the culture with PHA. The 18 hour culture period facilitates the use of this invention as a clinical assay.
After culturing, the cells are washed to remove the standard stimulus and then aliquots of cells are simultaneously incubated with two monoclonal antibodies, each directly conjugated to different fluorometrically distinguishable fluorophores. The first fluorophore-conjugated monoclonal antibody binds to a select mononuclear cell subclass antigenic determinant and the second fluorometrically distinguishable fluorophore-conjugated monoclonal antibody binds to a select cell surface activation antigen. After incubation, the cells are washed to remove excess antibody and, in this particular embodiment, fixed with 1% paraformaldehyde to halt any further cellular activity.
This analysis is correlated with the stimulation index as measured by a 72 hour PHA culture with tritiated thymidine uptake. Peripheral blood mononuclear cells from normal donors were isolated by density gradient centrifugation, cultured with PHA, incubated with monoclonal antibodies to select mononuclear cell subclass antigenic determinants and to IL-2 receptors and four parameter data generated and analyzed similar as described in “Detailed Description”. Monoclonal antibodies used included FITC-conjugated antibody for the antigenic determinants Leu-4, Leu-3a or Leu-2a, and PE-conjugated monoclonal antibody for IL-2 receptor. Four parameter data was collected on cells using an EPICS-V flow cytofluorometer (Coulter Corporation, Hialeah, Fla.) configured as described in “Detailed Description” with the following modification: the argon laser was used at 500 milliwatts. Forward and orthogonal light scatter parameters were analyzed to determine if the cell was within an area of interest which substantially included lymphocytes, lymphoblasts and monocytes. Green and red fluorescence data analysis was performed for such cells. The percentage of antigenic determinant and/or IL-2 receptor positive mononuclear cells, i.e., Leu-4+, Leu-3a+, Leu-2a+, IL2R+, leu-4+IL2R+, Leu-3a+IL2R+and Leu-2a+IL2R+, was determined as per the methods described herein. The results were not corrected for non-specific binding.
First, mononuclear cell subclass antigenic determinant and activation antigen analysis of PHA stimulated mononuclear cells was conducted using aliquots incubated with only one monoclonal antibody.
Analysis of the PEA stimulated mononuclear cells was conducted using aliquots incubated with a FITC-conjugated monoclonal antibody to detect antigenic determinants and anti-IL2R-PE.

[3] = 18 hours in culture with PHA, normal donors
[4] = 24 hours in culture with PHA, normal donors
[5] = 48 hours in culture with PHA, normal donors
[6] = Subject D, 18 hours in culture with PHA
[7] = Subject D, 24 hours in culture with PHA
[8] = Subject D, 48 hours in culture with PHA
[9] = Subject N, 18 hours in culture with PHA
[10] = Subject N, 48 hours in culture with PHA

phytohemagglutinin [PHA]
SI at 72 ([1]; Subject D): 535
SI at 72 ([1]; Subject N): 8
IL2R+ percentage positive ([2]; 18 hours in culture with PHA): 61 ± 1.9 percentage
Leu 2a+ percentage positive ([2]; 18 hours in culture with PHA): 18 ± 1.0 percentage
Leu 3a+ percentage positive ([2]; 18 hours in culture with PHA): 54 ± 1.7 percentage
Leu 4+ percentage positive ([2]; 18 hours in culture with PHA): 79 ± 2.4 percentage
Activated Leu-2a+ [2, 3]: 25 ± 6.4 Percentage
Activated Leu-3a+ [2, 3]: 49 ± 8.9 Percentage
Activated Leu-4+ [2, 3]: 49 ± 6.1 Percentage
IL2R+ percentage positive ([2]; 24 hours in culture with PHA): 71 ± 1.9 percentage
Leu 2a+ percentage positive ([2]; 24 hours in culture with PHA): 18 ± 0.7 percentage
Leu 3a+ percentage positive ([2]; 24 hours in culture with PHA): 54 ± 1.3 percentage
Leu 4+ percentage positive ([2]; 24 hours in culture with PHA): 77 ± 1.9 percentage
Activated Leu-2a+ [2, 4]: 32 ± 4.5 Percentage
Activated Leu-3a+ [2, 4]: 62 ± 8.5 Percentage
Activated Leu-4+ [2, 4]: 62 ± 3.7 Percentage
IL2R+ percentage positive ([2]; 48 hours in culture with PHA): 80 ± 1.5 percentage
Leu 2a+ percentage positive ([2]; 48 hours in culture with PHA): 19 ± 2.0 percentage
Leu 3a+ percentage positive ([2]; 48 hours in culture with PHA): 53 ± 2.8 percentage
Leu 4+ percentage positive ([2]; 48 hours in culture with PHA): 81 ± 2.2 percentage
Activated Leu-2a+ [2, 5]: 55 ± 8.0 Percentage
Activated Leu-3a+ [2, 5]: 70 ± 9.5 Percentage
Activated Leu-4+ [2, 5]: 72 ± 5.5 Percentage
time after initiating the culture at which a measurable amount of IL-2 receptor expression is observed ([2]; PHA 37.5 micrograms per milliliter, 1 million cells per milliliter): about 18 hours
Activated Leu-2a+ [2, 6]: 32 Percentage
Activated Leu-3a+ [2, 6]: 74 Percentage
Activated Leu-4+ [2, 6]: 68 Percentage
Activated Leu-2a+ [2, 7]: 32 Percentage
Activated Leu-3a+ [2, 7]: 79 Percentage
Activated Leu-4+ [2, 7]: 75 Percentage
Activated Leu-2a+ [2, 8]: 76 Percentage
Activated Leu-3a+ [2, 8]: 92 Percentage
Activated Leu-4+ [2, 8]: 84 Percentage
ratio of Activated Leu-3a+: Activated Leu-2a+ cells ([2]; Subject D): 2.31
Activated Leu-2a+ [2, 9]: 30 Percentage
Activated Leu-3a+ [2, 9]: 31 Percentage
Activated Leu-4+ [2, 9]: 32 Percentage
Activated Leu-4+ ([2]; Subject N, 24 hours in culture with PHA): 59 Percentage
Activated Leu-2a+ [2, 10]: 71 Percentage
Activated Leu-3a+ [2, 10]: 44 Percentage
ratio of Activated Leu-3a+: Activated Leu-2a+ cells ([2]; Subject N): 1.03
ratio of Activated Leu-3a+: Activated Leu-2a+ cells ([2]; Subject N, listed as PRA): approximately 1.0
subclass preference of activation ([2]; mononuclear cells which are Leu-3a+ versus Leu-2a+): preferentially activates helper/inducer T-cells
